Results published in patent US12252524B2, “GIP/GLP1 co-agonist compounds” (Eli Lilly and Company, priority 2018, dated 2025).
Numbered stars: 1 amine (or outer) side, 2 acyl side, 3 side chain; on linkers, the order of the positions; unused ones are H or OH. Square brackets hold non-standard residues; d marks the D form. Side chains are listed from the residue outwards. Peptide text beside a SMILES is read from it. * marks the point of attachment. Ala(1H-tetrazol-5-yl) = N[C@@H](Cc1nnn[nH]1)C(=O)O; C20 diacid = O=C(O)CCCCCCCCCCCCCCCCCCC(=O)*; αMePhe(2-F) = C[C@](N)(Cc1ccccc1F)C(=O)O; γGlu = O=C(O)[C@H](CCC(=O)[*:2])N[*:1]; αMeF = C[C@](N)(Cc1ccccc1)C(=O)O; 2Pal = N[C@@H](Cc1ccccn1)C(=O)O; αMeL = CC(C)C[C@](C)(N)C(=O)O; AEEA = NCCOCCOCC(=O)O; Aib = CC(C)(N)C(=O)O

What was measured:
[1] = molecular target: human GLP-1 receptor (GLP-1R) (Homo sapiens, UniProt P43220); experiment: cAMP pharmacological functional assay in presence of casein, hGLP-1R; assay type: cell-based; details: HEK293 cells expressing hGLP-1R, 0.1% Casein, geometric mean; read-out: hGLP1R cAMP Rel EC50 nM (SEM, n)
Sequence of human GLP-1 receptor (GLP-1R) (P43220 24-463): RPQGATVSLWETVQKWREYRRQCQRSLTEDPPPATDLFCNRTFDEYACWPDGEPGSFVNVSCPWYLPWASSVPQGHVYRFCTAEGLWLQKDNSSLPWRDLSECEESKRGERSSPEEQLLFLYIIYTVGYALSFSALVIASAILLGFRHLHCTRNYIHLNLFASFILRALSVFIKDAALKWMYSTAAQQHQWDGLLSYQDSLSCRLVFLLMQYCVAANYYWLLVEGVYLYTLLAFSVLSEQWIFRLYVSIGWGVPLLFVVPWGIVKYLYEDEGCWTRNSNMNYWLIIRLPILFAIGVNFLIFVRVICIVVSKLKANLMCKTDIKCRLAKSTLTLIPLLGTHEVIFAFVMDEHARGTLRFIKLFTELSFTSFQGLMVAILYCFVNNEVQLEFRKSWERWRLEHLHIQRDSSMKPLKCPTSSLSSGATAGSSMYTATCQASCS

[2] = molecular target: T1, gastric inhibitory peptide receptor (GIPR) (Homo sapiens, UniProt P48546); experiment: cAMP pharmacological functional assay in presence of casein, hGIPR; assay type: cell-based; details: HEK293 cells expressing hGIPR, 0.1% Casein, geometric mean; read-out: hGIPR cAMP Rel EC50 nM (SEM, n)
T1 sequence (P48546 22-466): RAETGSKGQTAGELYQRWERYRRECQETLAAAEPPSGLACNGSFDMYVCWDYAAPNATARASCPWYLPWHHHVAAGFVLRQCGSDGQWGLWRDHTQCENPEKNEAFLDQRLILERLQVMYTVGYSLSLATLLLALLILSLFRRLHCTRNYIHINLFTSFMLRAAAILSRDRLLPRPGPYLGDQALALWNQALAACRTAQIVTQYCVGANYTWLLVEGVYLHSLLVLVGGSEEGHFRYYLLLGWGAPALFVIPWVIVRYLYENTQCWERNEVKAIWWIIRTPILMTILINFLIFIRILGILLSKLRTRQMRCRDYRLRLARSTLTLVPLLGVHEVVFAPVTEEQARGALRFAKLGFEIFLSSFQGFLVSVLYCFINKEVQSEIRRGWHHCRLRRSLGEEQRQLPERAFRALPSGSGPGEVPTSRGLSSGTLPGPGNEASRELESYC

Structure (SMILES)	EC50 [1]	EC50 [2]
CC[C@H](C)[C@H](NC(=O)[C@H](CC(C)C)NC(=O)[C@H](Cc1ccc(O)cc1)NC(=O)[C@@H]1CCCN1C(=O)[C@@H](NC(=O)[C@H](Cc1ccccc1)NC(=O)[C@H](CCC(=O)O)NC(=O)C(C)(C)NC(=O)[C@H](CCC(N)=O)NC(=O)[C@H](C)NC(=O)[C@H](CCCCNC(=O)COCCOCCNC(=O)COCCOCCNC(=O)CC[C@H](NC(=O)CCCCCCCCCCCCCCCCCCC(=O)O)C(=O)O)NC(=O)[C@H](CCC(=O)O)NC(=O)[C@H](CC(=O)O)NC(=O)[C@H](CC(C)C)NC(=O)[C@](C)(CC(C)C)NC(=O)[C@@H](NC(=O)[C@H](CO)NC(=O)[C@H](Cc1ccc(O)cc1)NC(=O)[C@H](CC(=O)O)NC(=O)[C@H](CO)NC(=O)[C@@H](NC(=O)[C@](C)(Cc1ccccc1F)NC(=O)[C@@H](NC(=O)CNC(=O)[C@H](CCC(=O)O)NC(=O)C(C)(C)NC(=O)[C@@H](N)Cc1ccc(O)cc1)[C@@H](C)O)[C@@H](C)O)[C@@H](C)CC)[C@@H](C)CC)C(=O)N[C@@H](CCC(=O)O)C(=O)NCC(=O)NCC(=O)N1CCC[C@H]1C(=O)N[C@@H](CO)C(=O)N[C@@H](CO)C(=O)NCC(=O)N[C@@H](C)C(=O)N1CCC[C@H]1C(=O)N1CCC[C@H]1C(=O)N1CCC[C@H]1C(=O)N[C@@H](CO)C(N)=O [Example 151] (H-Y[Aib]EGT[αMePhe(2-F)]TSDYSI[αMeL]LDEK([AEEA-AEEA-γGlu-C20 diacid])AQ[Aib]EFIPYLIEGGPSSGAPPPS-NH2; N-terminus assumed)	1.6 nM	0.41 nM
CC[C@H](C)[C@H](NC(=O)[C@H](CC(C)C)NC(=O)[C@H](Cc1ccc(O)cc1)NC(=O)[C@H](CCC(=O)O)NC(=O)[C@@H](NC(=O)[C@H](Cc1ccccc1)NC(=O)[C@H](CCC(=O)O)NC(=O)C(C)(C)NC(=O)[C@H](CCC(N)=O)NC(=O)[C@H](C)NC(=O)[C@H](CCCCNC(=O)COCCOCCNC(=O)COCCOCCNC(=O)CC[C@H](NC(=O)CCCCCCCCCCCCCCCCCCC(=O)O)C(=O)O)NC(=O)[C@H](CCC(=O)O)NC(=O)[C@H](CC(=O)O)NC(=O)[C@H](CC(C)C)NC(=O)[C@](C)(CC(C)C)NC(=O)[C@@H](NC(=O)[C@H](CO)NC(=O)[C@H](Cc1nn[nH]n1)NC(=O)[C@H](CC(=O)O)NC(=O)[C@H](CO)NC(=O)[C@@H](NC(=O)[C@](C)(Cc1ccccc1F)NC(=O)[C@@H](NC(=O)CNC(=O)[C@H](CCC(=O)O)NC(=O)C(C)(C)NC(=O)[C@@H](N)Cc1ccc(O)cc1)[C@@H](C)O)[C@@H](C)O)[C@@H](C)CC)[C@@H](C)CC)C(=O)N[C@@H](CCC(=O)O)C(=O)NCC(=O)NCC(=O)N1CCC[C@H]1C(=O)N[C@@H](CO)C(=O)N[C@@H](CO)C(=O)NCC(=O)N[C@@H](C)C(=O)N1CCC[C@H]1C(=O)N1CCC[C@H]1C(=O)N1CCC[C@H]1C(=O)N[C@@H](CO)C(N)=O [Example 155] (H-Y[Aib]EGT[αMePhe(2-F)]TSD[Ala(1H-tetrazol-5-yl)]SI[αMeL]LDEK([AEEA-AEEA-γGlu-C20 diacid])AQ[Aib]EFIEYLIEGGPSSGAPPPS-NH2; N-terminus assumed)	0.495 nM	0.266 nM
CC[C@H](C)[C@H](NC(=O)[C@H](CC(C)C)NC(=O)[C@H](Cc1ccc(O)cc1)NC(=O)[C@H](CCC(=O)O)NC(=O)[C@@H](NC(=O)[C@H](Cc1ccccc1)NC(=O)[C@H](CCC(=O)O)NC(=O)C(C)(C)NC(=O)[C@H](CCC(N)=O)NC(=O)[C@H](C)NC(=O)[C@H](CCCCNC(=O)COCCOCCNC(=O)COCCOCCNC(=O)CC[C@H](NC(=O)CCCCCCCCCCCCCCCCCCC(=O)O)C(=O)O)NC(=O)[C@H](CCC(=O)O)NC(=O)[C@H](CC(=O)O)NC(=O)[C@H](CC(C)C)NC(=O)[C@](C)(CC(C)C)NC(=O)[C@@H](NC(=O)[C@H](CO)NC(=O)[C@H](Cc1ccccn1)NC(=O)[C@H](CC(=O)O)NC(=O)[C@H](CO)NC(=O)[C@@H](NC(=O)[C@](C)(Cc1ccccc1F)NC(=O)[C@@H](NC(=O)CNC(=O)[C@H](CCC(=O)O)NC(=O)C(C)(C)NC(=O)[C@@H](N)Cc1ccc(O)cc1)[C@@H](C)O)[C@@H](C)O)[C@@H](C)CC)[C@@H](C)CC)C(=O)N[C@@H](CCC(=O)O)C(=O)NCC(=O)NCC(=O)N1CCC[C@H]1C(=O)N[C@@H](CO)C(=O)N[C@@H](CO)C(=O)NCC(=O)N[C@@H](C)C(=O)N1CCC[C@H]1C(=O)N1CCC[C@H]1C(=O)N1CCC[C@H]1C(=O)N[C@@H](CO)C(N)=O [Example 156] (H-Y[Aib]EGT[αMePhe(2-F)]TSD[2Pal]SI[αMeL]LDEK([AEEA-AEEA-γGlu-C20 diacid])AQ[Aib]EFIEYLIEGGPSSGAPPPS-NH2)	0.638 nM	> 30 nM
CC[C@H](C)[C@H](NC(=O)[C@H](CC(C)C)NC(=O)[C@H](Cc1ccc(O)cc1)NC(=O)[C@H](CCC(=O)O)NC(=O)[C@@H](NC(=O)[C@H](Cc1ccccc1)NC(=O)[C@H](CCC(=O)O)NC(=O)C(C)(C)NC(=O)[C@H](CCC(N)=O)NC(=O)[C@H](C)NC(=O)[C@H](CCCCNC(=O)COCCOCCNC(=O)COCCOCCNC(=O)CC[C@H](NC(=O)CCCCCCCCCCCCCCCCCCC(=O)O)C(=O)O)NC(=O)[C@H](CCC(=O)O)NC(=O)[C@H](CC(=O)O)NC(=O)[C@H](CC(C)C)NC(=O)[C@](C)(CC(C)C)NC(=O)[C@@H](NC(=O)[C@H](CO)NC(=O)[C@](C)(Cc1ccccc1)NC(=O)[C@H](CC(=O)O)NC(=O)[C@H](CO)NC(=O)[C@@H](NC(=O)[C@](C)(Cc1ccccc1F)NC(=O)[C@@H](NC(=O)CNC(=O)[C@H](CCC(=O)O)NC(=O)C(C)(C)NC(=O)[C@@H](N)Cc1ccc(O)cc1)[C@@H](C)O)[C@@H](C)O)[C@@H](C)CC)[C@@H](C)CC)C(=O)N[C@@H](CCC(=O)O)C(=O)NCC(=O)NCC(=O)N1CCC[C@H]1C(=O)N[C@@H](CO)C(=O)N[C@@H](CO)C(=O)NCC(=O)N[C@@H](C)C(=O)N1CCC[C@H]1C(=O)N1CCC[C@H]1C(=O)N1CCC[C@H]1C(=O)N[C@@H](CO)C(N)=O [Example 159] (H-Y[Aib]EGT[αMePhe(2-F)]TSD[αMeF]SI[αMeL]LDEK([AEEA-AEEA-γGlu-C20 diacid])AQ[Aib]EFIEYLIEGGPSSGAPPPS-NH2)	0.33 nM	4.6 nM
CC[C@H](C)[C@H](NC(=O)[C@H](CC(C)C)NC(=O)[C@H](Cc1ccc(O)cc1)NC(=O)[C@@H](CCC(=O)O)NC(=O)[C@@H](NC(=O)[C@H](Cc1ccccc1)NC(=O)[C@@H](NC(=O)C(C)(C)NC(=O)[C@H](CCC(N)=O)NC(=O)[C@H](C)NC(=O)[C@H](CCCCNC(=O)COCCOCCNC(=O)COCCOCCNC(=O)CC[C@H](NC(=O)CC[C@H](NC(=O)CCCCCCCCCCCCCCCCCCC(=O)O)C(=O)O)C(=O)O)NC(=O)[C@H](CCC(=O)O)NC(=O)[C@H](CC(=O)O)NC(=O)[C@H](CC(C)C)NC(=O)[C@](C)(CC(C)C)NC(=O)[C@@H](NC(=O)[C@H](CO)NC(=O)[C@H](Cc1c[nH]cn1)NC(=O)[C@H](CC(=O)O)NC(=O)[C@H](CO)NC(=O)[C@@H](NC(=O)[C@](C)(Cc1ccccc1F)NC(=O)[C@@H](NC(=O)CNC(=O)[C@H](CCC(=O)O)NC(=O)C(C)(C)NC(=O)[C@@H](N)Cc1ccc(O)cc1)[C@@H](C)O)[C@@H](C)O)[C@@H](C)CC)[C@@H](C)O)[C@@H](C)CC)C(=O)N[C@@H](CCC(=O)O)C(=O)NCC(=O)NCC(=O)N1CCC[C@H]1C(=O)N[C@@H](CO)C(=O)N[C@@H](CO)C(=O)NCC(N)=O [Example 161] (H-Y[Aib]EGT[αMePhe(2-F)]TSDHSI[αMeL]LDEK([AEEA-AEEA-γGlu-γGlu-C20 diacid])AQ[Aib]TFI[dE]YLIEGGPSSG-NH2)	4.8 nM	0.254 nM
CC[C@H](C)[C@H](NC(=O)[C@H](CC(C)C)NC(=O)[C@H](Cc1c[nH]cn1)NC(=O)[C@@H](CCC(=O)O)NC(=O)[C@@H](NC(=O)[C@H](Cc1ccccc1)NC(=O)[C@@H](NC(=O)C(C)(C)NC(=O)[C@H](CCC(N)=O)NC(=O)[C@H](C)NC(=O)[C@H](CCCCNC(=O)COCCOCCNC(=O)COCCOCCNC(=O)CC[C@H](NC(=O)CC[C@H](NC(=O)CCCCCCCCCCCCCCCCCCC(=O)O)C(=O)O)C(=O)O)NC(=O)[C@H](CCC(=O)O)NC(=O)[C@H](CC(=O)O)NC(=O)[C@H](CC(C)C)NC(=O)[C@](C)(CC(C)C)NC(=O)[C@@H](NC(=O)[C@H](CO)NC(=O)[C@H](Cc1c[nH]cn1)NC(=O)[C@H](CC(=O)O)NC(=O)[C@H](CO)NC(=O)[C@@H](NC(=O)[C@](C)(Cc1ccccc1F)NC(=O)[C@@H](NC(=O)CNC(=O)[C@H](CCC(=O)O)NC(=O)C(C)(C)NC(=O)[C@@H](N)Cc1ccc(O)cc1)[C@@H](C)O)[C@@H](C)O)[C@@H](C)CC)[C@@H](C)O)[C@@H](C)CC)C(=O)N[C@@H](CCC(=O)O)C(=O)NCC(=O)NCC(=O)N1CCC[C@H]1C(=O)N[C@@H](CO)C(=O)N[C@@H](CO)C(=O)NCC(N)=O [Example 162] (H-Y[Aib]EGT[αMePhe(2-F)]TSDHSI[αMeL]LDEK([AEEA-AEEA-γGlu-γGlu-C20 diacid])AQ[Aib]TFI[dE]HLIEGGPSSG-NH2; N-terminus assumed)	36 nM	4.56 nM
